{"source": "ChEMBL document CHEMBL1127178", "about": "“Nucleosides and nucleotides. 117. A transition-state analogue in purine nucleotide biosynthesis: the design and synthesis of an imidazo[4,5-c]azepine nucleoside” (Bioorg Med Chem Lett, 1993)", "test_system": "L1210", "assay": "Cytotoxicity of compound was determined in terms of effective concentration required against murine L1210 cells", "type": "functional, cell-based", "conditions": "Mus musculus"}
{"molecule": "O=C1NC(O)C=Cc2c1ncn2C1O[C@H](CO)C(O)[C@H]1O", "note": "(single isomer, unassigned)", "values": [{"measurement": "EC50", "value": 5, "unit": "µg/mL"}]}
